In PubChem BioAssay AID248 (DTP/NCI, 2004):
“And” between values parts separate entries of the source, which are not always exact repeats. Identical values can stand only once. Inconclusive results and toxic doses are left out. Rule as the data show it: active = T/C of 150% or more; inactive = T/C below 125%.

Test system: L1210 leukemia ip in BDF1 mice, survival T/C
Experiment: NCI In Vivo Anticancer Drug Screen. Data for tumor model L1210 Leukemia (intraperitoneal) in B6D2F1 (BDF1) mice
Conditions: endpoint: mean survival time, higher = longer survival
How it was run: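 Transplantable tumor model; survival measured in treated vs vehicle control mice. Value = treated/control.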

[1] = dose: 100.0 mg/kg/injection, schedule: Q01DX009 (ip), vehicle: Klucel (hydroxypropylcellulose) (HPC)
[2] = dose: 100.0 mg/kg/injection, schedule: Q04DX003 (ip), vehicle: Klucel (hydroxypropylcellulose) (HPC)
[3] = dose: 200.0 mg/kg/injection, schedule: Q01DX009 (ip), vehicle: Klucel (hydroxypropylcellulose) (HPC)
[4] = dose: 200.0 mg/kg/injection, schedule: Q04DX003 (ip), vehicle: Klucel (hydroxypropylcellulose) (HPC)
[5] = dose: 400.0 mg/kg/injection, schedule: Q01DX009 (ip), vehicle: Klucel (hydroxypropylcellulose) (HPC)
[6] = dose: 400.0 mg/kg/injection, schedule: Q04DX003 (ip), vehicle: Klucel (hydroxypropylcellulose) (HPC)
[7] = dose: 100.0 mg/kg/injection, schedule: Q01DX009 (ip), vehicle: saline
[8] = dose: 100.0 mg/kg/injection, schedule: Q01DX009 (ip), vehicle: saline with Tween-80
[9] = dose: 200.0 mg/kg/injection, schedule: Q01DX009 (ip), vehicle: saline with Tween-80
[10] = dose: 400.0 mg/kg/injection, schedule: Q01DX009 (ip), vehicle: saline with Tween-80
[11] = dose: 50.0 mg/kg/injection, schedule: Q01DX009 (ip), vehicle: saline
[12] = dose: 100.0 mg/kg/injection, schedule: Q01DX001 (ip), vehicle: Klucel (hydroxypropylcellulose) (HPC)

Measured: T/C

CN(C)CCCOc1c2ccccc2cc2ccccc12
inactive: dose: 1.0 mg/kg/injection, schedule: Q01DX015 (ip), vehicle: carboxymethylcellulose (CMC) 92 % of control | dose: 2.0 mg/kg/injection, schedule: Q01DX015 (ip), vehicle: carboxymethylcellulose (CMC) 92 % of control | dose: 4.0 mg/kg/injection, schedule: Q01DX015 (ip), vehicle: carboxymethylcellulose (CMC) 92 % of control | dose: 8.0 mg/kg/injection, schedule: Q01DX015 (ip), vehicle: carboxymethylcellulose (CMC) 104 % of control and 90 % of control | dose: 16.0 mg/kg/injection, schedule: Q01DX015 (ip), vehicle: carboxymethylcellulose (CMC) 98 % of control

CO/C(N)=N\C(=O)NC1CC(OC(=O)c2ccc(C)cc2)C(COC(=O)c2ccc(C)cc2)O1 (stereo not drawn)
inactive: dose: 100.0 mg/kg/injection, schedule: Q04DX003 (ip), vehicle: saline 98 % of control | dose: 200.0 mg/kg/injection, schedule: Q04DX003 (ip), vehicle: saline 104 % of control | dose: 400.0 mg/kg/injection, schedule: Q04DX003 (ip), vehicle: saline 96 % of control

Cc1ccc(NS(=O)(=O)c2ccccc2)c(C)c1
inactive: [1] 99 % of control | [2] 104 % of control | [3] 99 % of control | [4] 95 % of control | [5] 94 % of control | [6] 98 % of control

c1ccc(C2=C(c3ccccc3)N=c3ccccc3=c3ccccc3=N2)cc1
inactive: [1] 98 % of control | [2] 94 % of control | [3] 94 % of control | [4] 94 % of control | [5] 94 % of control | [6] 102 % of control

CCN(CC)c1ccc(/C=N/NC(=S)NC23CC4CC(CC(C4)C2)C3)cc1
inactive: dose: 75.0 mg/kg/injection, schedule: Q01DX001 (ip), vehicle: saline 100 % of control | dose: 150.0 mg/kg/injection, schedule: Q01DX001 (ip), vehicle: saline 101 % of control | dose: 300.0 mg/kg/injection, schedule: Q01DX001 (ip), vehicle: saline 92 % of control

CCC(=O)OC(CC=C(C)C)(c1ccccc1)C(C)CN(C)C (stereo not drawn)
inactive: [7] 100 % of control

O=[N+]([O-])C(c1ccccc1)C(C/C(=N/O)c1ccccc1)c1ccccc1 (stereo not drawn)
inactive: dose: 100.0 mg/kg/injection, schedule: Q04DX002 (ip), vehicle: Klucel (hydroxypropylcellulose) (HPC) 100 % of control | dose: 200.0 mg/kg/injection, schedule: Q04DX002 (ip), vehicle: Klucel (hydroxypropylcellulose) (HPC) 92 % of control | dose: 400.0 mg/kg/injection, schedule: Q04DX002 (ip), vehicle: Klucel (hydroxypropylcellulose) (HPC) 96 % of control

S=C(S)NNc1ccccc1
inactive: dose: 25.0 mg/kg/injection, schedule: Q04DX003 (ip), vehicle: saline with Tween-80 104 % of control | dose: 50.0 mg/kg/injection, schedule: Q01DX009 (ip), vehicle: saline with Tween-80 86 % of control | dose: 50.0 mg/kg/injection, schedule: Q04DX003 (ip), vehicle: saline with Tween-80 109 % of control | [8] 86 % of control | dose: 100.0 mg/kg/injection, schedule: Q04DX003 (ip), vehicle: saline with Tween-80 109 % of control

O=C(O)c1c(Cl)c(Cl)c(C(=O)O)c(Cl)c1Cl
inactive: [8] 95 % of control | [9] 93 % of control | [10] 89 % of control

O=C1OCC/C1=C1/CCOC1
inactive: [11] 91 % of control | [7] 102 % of control

Cc1cc2ccccc2[n+](C)c1-c1ccccc1Cl
inactive: dose: 12.5 mg/kg/injection, schedule: Q04DX003 (ip), vehicle: saline 102 % of control

CS(=O)(=O)c1cccc(N)c1
inactive: dose: 100.0 mg/kg/injection, schedule: Q01DX001 (ip), vehicle: saline 102 % of control | dose: 200.0 mg/kg/injection, schedule: Q01DX001 (ip), vehicle: saline 91 % of control | dose: 400.0 mg/kg/injection, schedule: Q01DX001 (ip), vehicle: saline 98 % of control

Fc1c(F)c(F)[c]([Sn]([c]2ccccc2)([c]2ccccc2)[c]2ccccc2)c(F)c1F
inactive: dose: 1.56 mg/kg/injection, schedule: Q01DX009 (ip), vehicle: saline with Tween-80 102 % of control | dose: 3.13 mg/kg/injection, schedule: Q01DX009 (ip), vehicle: saline with Tween-80 94 % of control | dose: 6.25 mg/kg/injection, schedule: Q01DX009 (ip), vehicle: saline with Tween-80 92 % of control

CCCCOC(=O)C1CCCCC1C(=O)OCCCC (stereo not drawn)
inactive: dose: 50.0 mg/kg/injection, schedule: Q01DX009 (ip), vehicle: Klucel (hydroxypropylcellulose) (HPC) 102 % of control | [1] 102 % of control | [3] 90 % of control

CN(C)O
inactive: [8] 103 % of control | [9] 105 % of control | dose: 222.0 mg/kg/injection, schedule: Q01DX Z (ip), vehicle: saline 100 % of control | dose: 333.0 mg/kg/injection, schedule: Q01DX Z (ip), vehicle: saline 97 % of control | [10] 108 % of control | dose: 500.0 mg/kg/injection, schedule: Q01DX Z (ip), vehicle: saline 106 % of control

CN(N)Cc1cccc(O)c1
inactive: [11] 101 % of control | [7] 104 % of control | dose: 200.0 mg/kg/injection, schedule: Q01DX009 (ip), vehicle: saline 101 % of control

O=C(NCN1C(=O)c2ccccc2C1=O)NCN1C(=O)c2ccccc2C1=O
inactive: [1] 95 % of control | [3] 102 % of control | [5] 92 % of control

CN(CC1CCCCC1=O)CC1CCCCC1=O (stereo not drawn)
inactive: dose: 100.0 mg/kg/injection, schedule: Q01DX001 (ip), vehicle: steriod suspending solution 97 % of control | dose: 200.0 mg/kg/injection, schedule: Q01DX001 (ip), vehicle: steriod suspending solution 104 % of control | dose: 400.0 mg/kg/injection, schedule: Q01DX001 (ip), vehicle: steriod suspending solution 106 % of control

Cc1ccc(-n2c(=O)c(N=Nc3ccc(Cl)cc3)c(O)n(-c3ccccc3Cl)c2=S)cc1
inactive: dose: 25.0 mg/kg/injection, schedule: Q01DX001 (ip), vehicle: Klucel (hydroxypropylcellulose) (HPC) 97 % of control | dose: 50.0 mg/kg/injection, schedule: Q01DX001 (ip), vehicle: Klucel (hydroxypropylcellulose) (HPC) 101 % of control | [12] 92 % of control

COC(=O)CCNCCSC(=O)c1ccccc1
inactive: dose: 100.0 mg/kg/injection, schedule: Q04DX003 (ip), vehicle: acetone 103 % of control | dose: 200.0 mg/kg/injection, schedule: Q04DX003 (ip), vehicle: acetone 105 % of control | dose: 400.0 mg/kg/injection, schedule: Q04DX003 (ip), vehicle: acetone 102 % of control

O=C(Nc1ccc([N+](=O)[O-])cn1)Nc1ccccc1F
inactive: [12] 92 % of control | [1] 101 % of control and 90 % of control | [2] 99 % of control | dose: 200.0 mg/kg/injection, schedule: Q01DX001 (ip), vehicle: Klucel (hydroxypropylcellulose) (HPC) 89 % of control | [3] 100 % of control and 87 % of control | [4] 105 % of control | dose: 400.0 mg/kg/injection, schedule: Q01DX001 (ip), vehicle: Klucel (hydroxypropylcellulose) (HPC) 92 % of control | [5] 101 % of control and 90 % of control | [6] 99 % of control

O=CNc1ccc2c(c1)Cc1cc(Br)ccc1-2
inactive: dose: 50.0 mg/kg/injection, schedule: Q04DX003 (ip), vehicle: Klucel (hydroxypropylcellulose) (HPC) 97 % of control | [2] 101 % of control | [4] 97 % of control

O=C(O)c1cccc(C2CCCCC2)c1
inactive: dose: 75.0 mg/kg/injection, schedule: Q01DX001 (ip), vehicle: other 106 % of control | dose: 150.0 mg/kg/injection, schedule: Q01DX001 (ip), vehicle: other 97 % of control | dose: 300.0 mg/kg/injection, schedule: Q01DX001 (ip), vehicle: other 101 % of control
